Test results: patent US20230212129A1, “QUINAZOLINE DERIVATIVES USEFUL AS SELECTIVE HDAC6 INHIBITORS” (AnnJi Pharmaceutical Co., Ltd., priority 2020, published 2023)

Experiments:
IL-6 = IL-6 in bronchoalveolar lavage fluid, bleomycin model; format: in vivo, mice; details: prevention model, 30 mg/kg oral, 21 days; FIG. 6
Method: The activities of compounds COMPOUND 2 and COMPOUND 33 in preventing and/or treating pulmonary fibrosis were examined using a bleomycin-induced pulmonary fibrosis model, a model that involves deactivated bleomycin hydrolase, elevated oxidative stress, and increased inflammatory cytokines. In the prevention model, mice were administered bleomycin intratracheally an hour in prior to the first oral administration of 30 mg/kg testing compounds. The treatment continued for 21 consecutive days, and mice were sacrificed to examine histological changes of lung tissues were analyzed by H&E staining to evaluate the degree of lung fibrosis.

[1] = test system: cisplatin-induced neuropathy; experiment: Cisplatin-induced neuropathy, von Frey paw-withdrawal murine model; format: in vivo, Balb/c mice; details: oral once daily Day 16 to 29 (pregabalin 15 mg/kg one hour prior to test); vs cisplatin control; FIG. 4
Method: To understand whether COMPOUND 2 exerts neuron protective activities in cisplatin-induced neuropathy, a paw-withdrawal murine model is deployed. The 50% paw withdrawal threshold (PWT) to a static mechanical stimulus was assessed using von Frey filament and up-and-down method following the procedure described by Chaplan (1994). Mechanical allodynia, a painful sensation caused by innocuous stimuli like light touch, was assessed by the manual von Frey test once per week (on day 7, 14, 21, 28, […], and 42). The animals indicated sensation by pulling back its paw. The minimum force leading to withdrawal of the paw was regarded as the reflex threshold.
Balb/c mice weighing about 25±2 gram were given cisplatin intraperitoneally at the dose of 1.5 mg/kg for 5 consecutive days (cumulative dose of 7.5 mg/kg), followed by 5 days of recovery. The cisplatin administration cycle was repeated once more to reach a cumulative dose of 15 mg/kg to induce neuropathy. Test compounds, COMPOUND 2 and ACY1215, were orally administered once daily for 2 weeks (except for the weekends) from Day 16 to 29. Pregabalin, a drug known to provide transient pain relief, was administered at a dose of 15 mg/kg prior to each von Frey stimulus test to serve as the positive control.

HDAC1 = target: T1, HDAC1 (Homo sapiens, UniProt Q13547); experiment: HDAC1 activity, acetylated-AMC-labeled peptide substrate; format: biochemical
T1 construct: GST (C); host or cells: baculovirus expression system, Sf9 insect cells (SP9 [sic])
T1 sequence (Q13547 whole entry): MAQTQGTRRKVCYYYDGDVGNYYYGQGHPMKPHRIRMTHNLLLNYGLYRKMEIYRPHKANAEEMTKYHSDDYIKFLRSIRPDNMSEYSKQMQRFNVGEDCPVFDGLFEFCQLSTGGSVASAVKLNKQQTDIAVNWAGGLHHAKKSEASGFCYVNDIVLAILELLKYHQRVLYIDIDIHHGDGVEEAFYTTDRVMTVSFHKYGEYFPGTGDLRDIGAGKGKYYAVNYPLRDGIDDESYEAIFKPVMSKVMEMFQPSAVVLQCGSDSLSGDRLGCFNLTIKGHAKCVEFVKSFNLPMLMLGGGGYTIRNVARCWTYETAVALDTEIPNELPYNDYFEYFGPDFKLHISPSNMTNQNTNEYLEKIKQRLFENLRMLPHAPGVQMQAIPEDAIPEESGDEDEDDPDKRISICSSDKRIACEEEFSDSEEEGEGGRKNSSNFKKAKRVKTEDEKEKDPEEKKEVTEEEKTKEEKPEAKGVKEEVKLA
Method: The activities of HDAC 1 and 6 were measured by using an acetylated-AMC-labeled peptide substrate, a fluorogenic peptide from p53 residues 379-382 (RHIKKAc). The proteins involved in the assay are as the followings (1) Human HIDAC1 (Genflank Accession No. NM_004964): Full length with C-terminal GST tag, MW=79.9 kDa, expressed by baculovirus expression system in SP9 cells; and (2) Human HIDAC6 (Genflank Accession No. BC069243): Full length with N-terminal GST tag, MW=159 kDa, expressed by baculovirus expression system in Sf9 cells.

[2] = test system: dorsal root ganglion (DRG) cells; experiment: DRG neurite outgrowth after paclitaxel-induced damage; format: cell-based, C57BL/6J mice; details: 0.1 μM and 1 μM, 24 hours prior to 24-hour 0.1 μM paclitaxel; FIG. 1
Method: To investigate the effect of HDAC6 inhibitors in neuron protection and neuron regeneration, the recovery of dorsal root ganglion (DRG) cells post-paclitaxel injury was tested. Dorsal root ganglion was extracted from 7 week-old female C57BL/6J mice and incubated with HDAC6 inhibitors (compounds COMPOUND 33, COMPOUND 34, or COMPOUND 2) at the concentrations of 0.1 μM and 1 μM, or 100 ng/ml of BDNF, a neuronal growth factor (positive control), for 24 hours prior to a 24-hour incubation of 0.1 μM paclitaxel.
The neurite was stained by pIII-tubulin.

[3] = test system: paclitaxel-induced peripheral neuropathy; experiment: Paclitaxel-induced peripheral neuropathy, Von Frey test; format: in vivo, Sprague-Dawley (SD) rats
Method: Male Sprague-Dawley (SD) rats, weighing 320±30 grams, were given paclitaxel intraperitoneally at the dose of 6 mg/kg for 5 consecutive days with a total cumulative dose of 30 mg/kg to induce chemotherapy-induced peripheral neuropathy.
Compound 2 or vehicle was administered orally once daily for 2 weeks during the weekdays (Days 8 to 12 and 15-19). Mechanical allodynia is assessed by the manual Von Frey test once per week. The animals are given 20 to 30 minutes to acclimatize prior to the testing. The paw is pressed with a series of 8 manual Von Frey monofilaments with logarithmically incremental stiffness [3.61 (0.4 g), 3.84 (0.6 g), 4.08 (1.0 g), 4.31 (2.0 g), 4.56 (4.0 g), 4.93 (8.0 g), 5.18 (15.0 g) and (26.0 g)]. The manual Von Frey monofilament was applied perpendicularly from underneath the mesh floor to the central plantar surface with sufficient force to cause a slight buckling against the paw, and held for approximately 6-8 seconds. A positive response was noted if the paw is sharply withdrawn; ambulation is considered an ambiguous response, and in such cases, the stimulus is reapplied. The 50% paw withdrawal threshold (PWT) to a static mechanical stimulus was assessed using Von Frey filament and up-and-down method.
Von Frey data were presented as mean±SEM (Standard Error of the Mean). Treatment groups were compared to the paclitaxel control using Student's T-test. A p value <0.05 is considered to represent a significant difference.

IC50 (HDAC1): 5.17 µM
SMILES: CCc1nc2cc(F)c(/C=C/C(=O)NO)cc2c(=O)n1-c1c(C)cccc1C [Compound 2, (E)-3-(3-(2,6-dimethylphenyl)-2-ethyl-7-fluoro-4-oxo-3,4-dihydroquinazolin-6-yl)-N-hydroxyacrylamide]
IL-6 level in the BALF (IL-6): suppressed IL-6 level in the BALF
mean withdrawal threshold (50% PWT) [1]: significantly increased the mean withdrawal threshold
neurite outgrowth [2]: significantly rescued the neurite outgrowth
duration of effect after the dosing was stopped ([3]; 15 and 30 mg/kg): ≥ 14 days
sensitivity to the mechanical stimulation ([3]; 15 and 30 mg/kg, starting from study Day 14): significantly reduced the sensitivity
pain-relief after dosing was stopped ([3]; FIG. 7): maintained for at least two weeks after dosing was stopped
threshold of mean withdrawal force ([3]; vs vehicle, from study Day 14, oral once daily Days 8 to 12 and 15-19): significant increase in the threshold of mean withdrawal force
